# From patent US12662489B2 (Sitryx Therapeutics Limited, priority 2023, dated 2026)
# How the values were obtained:
# [1] = molecular target: T1, MTHFD1 recombinant human enzyme (Homo sapiens, UniProt P11586); assay: MTHFD1 inhibition assay (NAD(P)H-Glo luminescence); conditions: MTHFD1 IC50, recombinant human enzyme 200 nM, NADP, band
# T1 sequence (P11586 2-291 limits assumed): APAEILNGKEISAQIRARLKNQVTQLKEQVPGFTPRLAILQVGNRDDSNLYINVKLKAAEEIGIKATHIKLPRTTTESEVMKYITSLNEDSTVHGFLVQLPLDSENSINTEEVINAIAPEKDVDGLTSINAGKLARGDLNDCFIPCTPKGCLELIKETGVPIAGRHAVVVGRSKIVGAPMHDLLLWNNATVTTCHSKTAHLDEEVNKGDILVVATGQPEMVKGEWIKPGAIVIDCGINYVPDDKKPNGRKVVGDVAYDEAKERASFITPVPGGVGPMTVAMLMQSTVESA
# [2] = molecular target: T2, MTHFD2 recombinant human enzyme (Homo sapiens, UniProt P13995); assay: MTHFD2 inhibition assay (NAD(P)H-Glo luminescence); conditions: for MTHFD1/MTHFD2 IC50 ratio: selectivity of MTHFD2 inhibition over MTHFD1, band
# T2 sequence (P13995 36-350): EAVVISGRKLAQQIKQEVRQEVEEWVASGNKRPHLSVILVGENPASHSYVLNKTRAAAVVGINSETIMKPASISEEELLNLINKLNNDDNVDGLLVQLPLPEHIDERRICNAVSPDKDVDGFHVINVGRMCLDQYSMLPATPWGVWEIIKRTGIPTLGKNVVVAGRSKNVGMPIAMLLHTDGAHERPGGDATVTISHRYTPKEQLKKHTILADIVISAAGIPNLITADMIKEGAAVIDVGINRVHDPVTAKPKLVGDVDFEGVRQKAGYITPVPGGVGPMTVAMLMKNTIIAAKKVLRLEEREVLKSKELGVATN
SMILES,IC50 [1] [nM],IC50 [2] [nM],MTHFD1/MTHFD2 IC50 ratio [2]
"COC[C@H]1CN(c2ccc3c4c(c(=O)oc3c2C)CN(C(=O)c2cc(F)c(C(=O)NS(=O)(=O)N(C)C)c(N3C5CCC3CC5)c2)CC4)CCN1C [Example 23, (R)-2-(7-azabicyclo[2.2.1]heptan-7-yl)-N-(N,N-dimethylsulfamoyl)-6-fluoro-4-(8-(3-(methoxymethyl)-4-methylpiperazin-1-yl)-7-methyl-5-oxo-1,3,4,5-tetrahydro-2H-chromeno[3,4-c]pyridine-3-carbonyl)benzamide]",1 to 10,1 to 10,F (<3)
"COC[C@H]1CN(c2ccc3c4c(c(=O)oc3c2)CN(C(=O)c2ccc(C(=O)NS(=O)(=O)N3CCCC3)c(OC3CCC3)c2F)CC4)CCN1C [Example 182, (R)-2-cyclobutoxy-3-fluoro-4-(8-(3-(methoxymethyl)-4-methylpiperazin-1-yl)-5-oxo-1,3,4,5-tetrahydro-2H-chromeno[3,4-c]pyridine-3-carbonyl)-N-(pyrrolidin-1-ylsulfonyl)benzamide]",1000 to 5000,100 to 1000,G (^ 3 to 9.0)
"COC[C@H]1CN(c2cc(C)c3c4c(c(=O)oc3c2C)CN(C(=O)c2cc(C(=O)NS(=O)(=O)N3CCCC3)c(OC3CCC3)cc2F)CC4)CCN1C [Example 165, (R)-2-cyclobutoxy-4-fluoro-5-(8-(3-(methoxymethyl)-4-methylpiperazin-1-yl)-7,10-dimethyl-5-oxo-1,3,4,5-tetrahydro-2H-chromeno[3,4-c]pyridine-3-carbonyl)-N-(pyrrolidin-1-ylsulfonyl)benzamide]",> 5000,100 to 1000,H (>9.0 to 30)
"CCOc1c(C(=O)NS(=O)(=O)N2C3CCC2CC3)ccc(C(=O)N2CCc3c(c(=O)oc4c(CC)c(N5CCN(C)[C@@H](COC)C5)ccc34)C2)c1F [Example 215, (R)-N-((7-azabicyclo[2.2.1]heptan-7-yl)sulfonyl)-2-ethoxy-4-(7-ethyl-8-(3-(methoxymethyl)-4-methylpiperazin-1-yl)-5-oxo-1,3,4,5-tetrahydro-2H-chromeno[3,4-c]pyridine-3-carbonyl)-3-fluorobenzamide]",10 to 100,100 to 1000,F (<3)
"COC[C@H]1CN(c2cc(C)c3c4c(c(=O)oc3c2C)CN(C(=O)c2ccc(C(=O)NS(=O)(=O)N3CC5CC5C3)c(OC3CC3)c2F)CC4)CCN1C (stereo partly drawn) [Example 207, N-((3-azabicyclo[3.1.0]hexan-3-yl)sulfonyl)-2-cyclopropoxy-3-fluoro-4-(8-((R)-3-(methoxymethyl)-4-methylpiperazin-1-yl)-7,10-dimethyl-5-oxo-1,3,4,5-tetrahydro-2H-chromeno[3,4-c]pyridine-3-carbonyl)benzamide]",10 to 100,10 to 100,F (<3)
"COC[C@H]1CN(c2cc(C)c3c4c(c(=O)oc3c2C)CN(C(=O)c2ccc(C(=O)NS(=O)(=O)N3C5CCC3COC5)c(OC)c2F)CC4)CCN1C [Example 158, N-((3-oxa-8-azabicyclo[3.2.1]octan-8-yl)sulfonyl)-3-fluoro-2-methoxy-4-(8-((R)-3-(methoxymethyl)-4-methylpiperazin-1-yl)-7,10-dimethyl-5-oxo-1,3,4,5-tetrahydro-2H-chromeno[3,4-c]pyridine-3-carbonyl)benzamide]",100 to 1000,10 to 100,H (>9.0 to 30)
COC[C@H]1CN(c2cc(C)c3c4c(c(=O)oc3c2C)CN(C(=O)c2cc(F)c(C(=O)NS(=O)(=O)N3CCCC3)cc2N(C)C)CC4)CCN1C [Example 243],1000 to 5000,10 to 100,J (>30)
"CCOc1cc(C(=O)N2CCc3c(c(=O)oc4c(C)c(N5CCN(C)[C@@H](COC)C5)cc(C)c34)C2)c(F)cc1C(=O)NS(=O)(=O)N1CC[C@@H](F)C1 [Example 261, 2-ethoxy-5-fluoro-N-(((R)-3-fluoropyrrolidin-1-yl)sulfonyl)-4-(8-((R)-3-(methoxymethyl)-4-methylpiperazin-1-yl)-7,10-dimethyl-5-oxo-1,3,4,5-tetrahydro-2H-chromeno[3,4-c]pyridine-3-carbonyl)benzamide]",100 to 1000,1 to 10,
"COC[C@H]1CN(c2cc(C)c3c4c(c(=O)oc3c2C)CN(C(=O)c2ccc(C(=O)NS(=O)(=O)N(C)C)c(OC3C5CC6CC(C5)CC3C6)c2F)CC4)CCN1C (stereo partly drawn) [Example 90, 2-((adamantan-2-yl)oxy)-N-(N,N-dimethylsulfamoyl)-3-fluoro-4-(8-((R)-3-(methoxymethyl)-4-methylpiperazin-1-yl)-7,10-dimethyl-5-oxo-1,3,4,5-tetrahydro-2H-chromeno[3,4-c]pyridine-3-carbonyl)benzamide]",10 to 100,10 to 100,
"CCOc1cc(C(=O)N2CCc3c(c(=O)oc4c(C)c(N5CCN(C)[C@@H](COC)C5)cc(Cl)c34)C2)c(F)cc1C(=O)NS(=O)(=O)N(C)C1CC1 [Example 298, (R)-4-(10-chloro-8-(3-(methoxymethyl)-4-methylpiperazin-1-yl)-7-methyl-5-oxo-1,3,4,5-tetrahydro-2H-chromeno[3,4-c]pyridine-3-carbonyl)-N-(N-cyclopropyl-N-methylsulfamoyl)-2-ethoxy-5-fluorobenzamide]",100 to 1000,10 to 100,G (^ 3 to 9.0)
CCOc1c(C(=O)NS(=O)(=O)N2CC3CC3C2)ccc(C(=O)N2CCc3c(c(=O)oc4c(C)c(N5CCN(C)[C@@H](COC)C5)cc(C)c34)C2)c1F (stereo partly shown) [Example 229],10 to 100,10 to 100,G (^ 3 to 9.0)

# Results, then the compound that gave them:
IC50 [1] [nM],IC50 [2] [nM],MTHFD1/MTHFD2 IC50 ratio [2],SMILES
10 to 100,100 to 1000,F (<3),"COC[C@H]1CN(c2ccc3c4c(c(=O)oc3c2C)CN(C(=O)c2ccc(C(=O)NS(=O)(=O)N(C)C)c(OC3C[C@@H]5C[C@@H]5C3)c2)CC4)CCN1C (mixture of isomers) [Example 113, 2-(bicyclo[3.1.0]hexan-3-yloxy)-N-(N,N-dimethylsulfamoyl)-4-(8-((R)-3-(methoxymethyl)-4-methylpiperazin-1-yl)-7-methyl-5-oxo-1,3,4,5-tetrahydro-2H-chromeno[3,4-c]pyridine-3-carbonyl)benzamide]"
10 to 100,10 to 100,F (<3),"COC[C@H]1CN(c2cc(C)c3c4c(c(=O)oc3c2C)CN(C(=O)c2ccc(C(=O)NS(=O)(=O)N3CCCC3)c(N3CC5CC5C3)c2)CC4)CCN1C (stereo partly drawn) [Example 126, 2-(3-azabicyclo[3.1.0]hexan-3-yl)-4-(8-((R)-3-(methoxymethyl)-4-methylpiperazin-1-yl)-7,10-dimethyl-5-oxo-1,3,4,5-tetrahydro-2H-chromeno[3,4-c]pyridine-3-carbonyl)-N-(pyrrolidin-1-ylsulfonyl)benzamide]"
10 to 100,1 to 10,F (<3),"COC[C@H]1CN(c2cc(C)c3c4c(c(=O)oc3c2C)CN(C(=O)c2ccc(C(=O)NS(=O)(=O)N3CCCC3)c(OCCC(F)(F)F)c2F)CC4)CCN1C [Example 222, (R)-3-fluoro-4-(8-(3-(methoxymethyl)-4-methylpiperazin-1-yl)-7,10-dimethyl-5-oxo-1,3,4,5-tetrahydro-2H-chromeno[3,4-c]pyridine-3-carbonyl)-N-(pyrrolidin-1-ylsulfonyl)-2-(3,3,3-trifluoropropoxy)benzamide]"
10 to 100,10 to 100,F (<3),CCOc1c(C(=O)NS(=O)(=O)N2C[C@H]3CCC[C@H]3C2)ccc(C(=O)N2CCc3c(c(=O)oc4c(C)c(N5CCN(C)[C@@H](COC)C5)cc(C)c34)C2)c1F [Example 232]
1 to 10,1 to 10,F (<3),"COC[C@H]1CN(c2ccc3c4c(c(=O)oc3c2C)CN(C(=O)c2ccc(C(=O)NS(=O)(=O)N3CCCC3)c(O[C@@H]3C[C@@H]5C[C@@H]5C3)c2F)CC4)CCN1C [Example 63, 2-(((1R,3r,5S)-bicyclo[3.1.0]hexan-3-yl)oxy)-3-fluoro-4-(8-((R)-3-(methoxymethyl)-4-methylpiperazin-1-yl)-7-methyl-5-oxo-1,3,4,5-tetrahydro-2H-chromeno[3,4-c]pyridine-3-carbonyl)-N-(pyrrolidin-1-ylsulfonyl)benzamide]"
1 to 10,1 to 10,F (<3),"COC[C@H]1CN(c2cc(C)c3c4c(c(=O)oc3c2C)CN(C(=O)c2ccc(C(=O)NS(=O)(=O)N3CCCC3)c(O[C@@H]3C[C@@H]5C[C@@H]5C3)c2F)CC4)CCN1C [Example 35, 2-(((1R,3r,5S)-bicyclo[3.1.0]hexan-3-yl)oxy)-3-fluoro-4-(8-((R)-3-(methoxymethyl)-4-methylpiperazin-1-yl)-7,10-dimethyl-5-oxo-1,3,4,5-tetrahydro-2H-chromeno[3,4-c]pyridine-3-carbonyl)-N-(pyrrolidin-1-ylsulfonyl)benzamide]"
